The text below walks through data of patent US20220323427A1, “SOMATOSTATIN RECEPTOR TYPE 5 AGONIST FOR THE TREATMENT OF HYPERINSULINISM” (Crinetics Pharmaceuticals, Inc., priority 2021, published 2022).

Structures are written as SMILES.

As usually defined, the Tmax is the time from dosing to the highest level. Broadly, the half-life is how long it takes for the measured level to halve. A word on the AUC: it is concentration integrated over time. Lower therefore signals less exposure. As a reminder, the Cmax is the peak of the concentration-time curve. The term EC50 denotes the concentration needed to bring the measured effect to its halfway point.

Data set [1] can be described thus: MAD study safety and tolerability. The following applies: QD 30, 60 and 120 mg/day for 10 days. The format is in vivo, human. The protocol: MAD/Part 2: multiple ascending dose, randomized, placebo-controlled, double-blind; up to 5 cohorts, n=9/cohort; subjects in MAD will receive Compound 1 or the placebo. Subjects will undergo a mixed meal tolerance test (MMTT) and an SU challenge and euglycemic clamp procedure. The doses will not exceed the doses in the SAD. Doses will escalate from 30 mg to 120 mg.
To evaluate the safety and tolerability of single and multiple doses of Compound 1.

A short description of data set [2]: SAD study pharmacokinetics. The data set is classed as in vivo, human. An excerpt:
This Phase 1, first-in-human, double-blind, randomized, placebo-controlled study will evaluate the safety of Compound 1 in healthy volunteers as well as the relationship between exposure and key pharmacodynamic (PD) parameters. The study will initiate with a single ascending dose (SAD) phase followed by a multiple ascending dose (MAD) phase. Food effect will also be evaluated in subset of subjects in the SAD phase. Results will be used to inform endpoints and other parameters in later studies in patients with congenital HI.
SAD 1a/Part 1a: ascending single dose, randomized, placebo-controlled, double-blind; up to 10 cohorts, n=8/cohort; subjects in SAD 1a will undergo an IVGTT. Doses will escalate from 0.5 mg to 120 mg.
SAD 1c/Part 1c: single dose, 1-arm crossover food effect investigation; 1 cohort, n=6; SAD 1c will not be placebo-controlled or blinded. The dose is 120 mg.
In SAD 1c, subjects will participate in a 1-arm crossover investigation to evaluate the effect of a high-fat meal on Compound 1 absorption.

A short description of data set [3]: Exposure in non-fasted male rats. The following applies: Sprague Dawley, rat, in vivo, oral, 10 mg/kg.
Data set [4] concerns human pancreatic islets. Put plainly: Glucagon secretion in perifused human islets. The format is cell-based. The following applies: islets from a healthy donor; G3+Arg. Here is the method: For glucagon secretion, glucose (Boston BioProducts #BM-675) solutions, G3, G16.7 and G3 plus 20 mM arginine (Sigma #A8094; G3+Arg) were prepared in PB [24 mM NaHCO3 (Fisher Scientific #S233-500), 120 mM NaCl (Spectrum Chemical #S0155), 4.8 mM KCl (Fisher Scientific #P217-500), 2.5 mM CaCl2 (Fisher Scientific #C614-500), 1.2 mM MgCl2 (Sigma #M8266), 10 mM HEPES (Gibco #15630-080) and 0.1% BSA (EMD Millipore #12-675-100GM)]. Various concentrations of Compound 1 and diazoxide (Sigma #D9035) were prepared in G16.7 or in G3+Arg. On the day of the assay, ten perifusion chambers (Biorep #Peri-chamber) were loaded with a bead suspension (Biorep #Peri-beads-20) followed by 300 IEQ and another layer of bead suspension. Chambers were filled with PB, placed in the perifusion equipment and equilibrated with G3 for 74 min (flow rate=230 μL/min) followed by the perifusion steps for glucagon secretion shown in Table 3. […] Glucagon concentration was quantified using the commercially-available Mercodia Glucagon ELISA (Mercodia #10-1271-01) kit. undiluted perfusate samples were added to the supplied pre-coated assay plates. […] The optical density of each well was determined at 450 nm in a Tecan M1000Pro (Tecan, Switzerland) multiplate reader. Glucagon concentrations were calculated by regression to the standard curve using GraphPad Prism (GraphPad, San Diego, Calif.).

In data set [5] the target is T1, human somatostatin receptor subtype 5 (Homo sapiens, UniProt P35346).
T1 construct: expressed in transfected cells
Put plainly: cAMP assay for SST5R. The data set is classed as cell-based. An excerpt: General overview: All five SSTR subtypes are Gi coupled G-protein coupled receptors (GPCRs) that lead to decreases in intracellular cyclic AMP (cAMP) when activated by an agonist. Therefore, measurement of intracellular cAMP levels can be used to assess whether compounds of the invention are agonists of SSTR subtypes (John Kelly, Troy Stevens, W. Joseph Thompson, and Roland Seifert, Current Protocols in Pharmacology, 2005, 2.2.1-2.2). One example of an intracellular cAMP assay is described below.
Four days prior to the assay, 2,000 Chinese hamster ovary cells (CHO-K1, ATCC #CCL-61) stably expressing the human somatostatin receptor subtype 5 are plated in each well of a 96-well tissue culture-treated plate in Ham's F12 growth media (ThermoFisher #10-080-CM) supplemented with 10% donor bovine serum (Gemini Bio-Products #100-506), 100 U/mL penicillin; 100 μg/mL streptomycin; 2 mM L-glutamine (Gemini Bio-Products #400-110) and 0.25 mg/mL G418 Sulfate (GoldBio #108321-42-2). The cells are cultured at 37° C., 5% CO2 and 95% humidity. […] The time-resolved fluorescent signal is read with a Tecan M1000Pro multiplate reader. The intracellular cAMP concentrations are calculated by regression to a standard curve and are plotted vs. the concentration of the compounds of the invention and the EC50 of the compounds are calculated using standard methods. […]
A general note: Changes in cAMP serve as a functional read-out for many G protein-coupled receptors.

T1 sequence (P35346 whole entry): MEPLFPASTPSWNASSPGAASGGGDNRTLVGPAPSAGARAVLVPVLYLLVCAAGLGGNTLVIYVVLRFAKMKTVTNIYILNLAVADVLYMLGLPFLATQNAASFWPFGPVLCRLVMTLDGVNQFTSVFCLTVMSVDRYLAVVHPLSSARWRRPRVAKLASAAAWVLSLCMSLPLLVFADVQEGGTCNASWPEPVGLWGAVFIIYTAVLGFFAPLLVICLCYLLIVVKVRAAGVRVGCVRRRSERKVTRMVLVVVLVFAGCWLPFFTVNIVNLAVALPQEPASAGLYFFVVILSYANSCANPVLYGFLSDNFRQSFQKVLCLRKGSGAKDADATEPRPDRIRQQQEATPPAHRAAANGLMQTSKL

As to `C[C@H](NC(=O)c1cnc(C#N)c(-c2cc(F)cc(F)c2)c1N1CC[C@H](N)C1)C(F)(F)F` [Compound 1, 4-[(3S)-3-aminopyrrolidin-1-yl]-6-cyano-5-(3,5-difluorophenyl)-N-[(2S)-1,1,1-trifluoropropan-2-yl]pyridine-3-carboxamide], in data set [1], the Safety and tolerability entry was “generally safe and well tolerated”. Further, in data set [2] (120 mg within 30 minutes of a high fat breakfast), the “Food effect on exposure” value is “significant reduction in exposure”. Also, the time to peak (Tmax) in data set [2] (human, in vivo, single oral dose, at efficacious doses) was 1 to 2 h. For the same molecule, the half-life in data set [2] (human, in vivo, single oral dose, healthy volunteers) was ~40 h. In addition, the “Oral bioavailability and dose proportionality” value in data set [2] (single oral doses 0.5 to 120 mg) is reported as “oral bioavailability with dose-proportional exposure”. In addition, in data set [3], the AUC is 590 ng·h/mL and the peak level (Cmax) was 45 ng/mL. In addition, in data set [4], the “Inhibition of arginine-stimulated glucagon secretion” value is listed as “up to 24%”. Moreover, the “Fold selectivity for SST5 vs SST2” value in data set [5] (human SST5 vs human SST2, cAMP) was >500 fold. Moreover, the EC50 in data set [5] (inhibition of cAMP, CHO-K1 cells expressing human SST5, read-out: SST5 potency (EC50; nM)) was < 1 nM.
